What was measured:
C57/BL6N male mice [1] = assay: Oxygen consumption on odor presentation; format: in vivo, mouse; settings: filter paper scented with 100 μl (104 mmol) odor, versus saline
Experimental: (§1) An influence of a thiazoline-related compound on the oxygen consumption was analyzed. The oxygen consumption was analyzed using an energy metabolism measurement device for small animals (ARCO-2000; ARCO SYSTEM). About 3-month-old C57/BL6N male mice were each placed in a measuring chamber and, after acclimation for about 2 hr, a thiazoline-related compound (2MT) was presented. The odors were presented by placing filter papers scented with 100 μl (104 mmol) of odor molecules in the measuring chamber. As a control, an experiment in which a filter paper dropped with saline was presented to the mice was also performed. The oxygen consumption was measured every one min. Mean oxygen consumption was calculated as the mean of 10 min before presenting odor and 20 min after presenting odor.

[2] = tested on: Skin ischemia-reperfusion injury model mouse; assay: Skin ischemia-reperfusion injury (pressure ulcer) model, wound area; format: in vivo; settings: odor 100 μl (104 mmol) 30 min before and during 12 hr of pinching the skin between magnets, versus no odor
Experimental: Skin ischemia-reperfusion injury model mouse was generated as follows according to the method of Uchiyama et al. (Uchiyama et al., Sci Rep 5:9072, 2015). The back hair of C57/BL6N male mice (about 3-month-old) was shaved in the same manner as in Example 1, 2-3 days before the test. On the day of the test, the mice were each placed in a highly sealed cage, and a filter paper scented with 100 μl (104 mmol) of the thiazoline-related compound (2MT) was placed in the breeding cage, and the odor was presented for 30 min. As a control, a filter paper dropped with water was presented for 30 min (no odor). After 30 min, the mouse was taken out from the cage, the dorsal skin was pinched between two circular magnets and the mouse was returned to the highly sealed cage. Furthermore, a filter paper scented with 100 μl (104 mmol) of 2 MT or water was placed in the highly sealed cage, and the mouse was left for 12 hr. […] The condition of the skin on the back, which was pinched between magnets, was recorded by taking photographs every day. Based on the obtained images, the wound area was quantified with image analysis software (Photoshop, Adobe). Furthermore, changes in the core body temperature when the odor was presented under the same conditions as in this Example were measured by the same experimental method as in Example 2.

[3] = tested on: Trpa1 knockout mice and littermate hetero mice; assay: Oxygen consumption on odor presentation, Trpa1 knockout and hetero mice; format: in vivo, mouse; settings: two filter papers scented with 271 μmol
Experimental: as §1
The oxygen consumption was measured using an energy metabolism measurement device for small animals as in Example 8.About 3-month to 6-month-old Trpa1 knockout mice and littermate hetero mice were each placed in a measuring chamber of the energy metabolism measurement device for small animals and, after acclimation for about 2 hr, a thiazoline-related compound (2MT) was presented. The odor was presented by placing two filter papers scented with 271 μmol of thiazoline-related compound (2MT) in the measuring chamber.

[4] = tested on: High Mobility Group Box 1 (HMGB1); assay: Blood HMGB1 in LPS sepsis model (ELISA); format: in vivo, mouse; settings: about 80 mg/kg i.p., 16 hr, versus saline
Experimental: (§2) Lipopolysaccharide (LPS) (0.6 mg/kg) was intraperitoneally administered to male Balb/c mice (about 2-3 months old) to generate a sepsis model. Immediately after the LPS administration, 200 μl (about 80 mg/kg) of a solution prepared by diluting various heterocyclic compounds and isothiocyanate compounds 100 times with saline was intraperitoneally administered. Blood samples were collected 60 min after LPS and compound administration, EDTA plasma was prepared, and the blood level of inflammatory cytokine TNF-a was measured by the ELISA method.
(§3) A sepsis model mouse was prepared by the same method as in Example 18. Immediately after the LPS administration, 200 μl (about 80 mg/kg) of a thiazoline-related compound (2MT) solution prepared by diluting 100 times with saline was intraperitoneally administered. Blood samples were collected 16 hr after administration of LPS and thiazoline-related compound (2MT), EDTA plasma was prepared, and the blood level of inflammatory mediator High Mobility Group Box 1 (HMGB1) was measured by the ELISA method.

C57/BL6N male mice [5] = assay: Survival time in 4% oxygen after odor presentation; format: in vivo, mouse; settings: odor 100 μl (104 mmol) presented 50 min before; measured up to 30 min; no odor controls all died within 20 min
Experimental: About 3-month-old C57/BL6N male mice were each placed in a highly sealed breeding cage, and a filter paper scented with 100 μl (104 mmol) of the thiazoline-related compound (2MT) was placed in the breeding cage, and the odor was presented for 50 min. After the odor was presented, the mice were placed in a tight box in which the oxygen concentration was adjusted to 4%, and the survival time of the mice was measured up to 30 min at maximum. As a control, the survival time of mice presented with a filter paper dropped with water was also measured (no odor). Furthermore, changes in the core body temperature when the odor was presented under the same conditions as in this Example were measured by the same experimental method as in Example 4.

Interleukin-10 (IL-10) = assay: Blood IL-10 in LPS sepsis model (ELISA); format: in vivo, mouse; settings: about 80 mg/kg i.p., 1 hr and 4 hr, versus saline
Experimental: as §2
as §3, with “1 hr and 4” for “16”, “levels” for “level”, “cytokine Interleukin-1β (IL-1β), and anti-inflammatory cytokine Interleukin-10 (IL-10) were” for “mediator High Mobility Group Box 1 (HMGB1) was”

mice = assay: Oxygen consumption after intraperitoneal injection; format: in vivo, mouse; settings: versus saline
Experimental: as §1
Changes in the oxygen consumption induced by intraperitoneal injection of heterocyclic compounds (2MT and Thiomorpholine (TMO) were measured by a method similar to that in Example 8.

CC1=NCCS1 [2MT, 2-methyl-2-thiazoline]
oxygen consumption per body weight (C57/BL6N male mice [1]): decreased remarkably
formation of pressure ulcer (wound area) [2]: formation of pressure ulcer significantly decreased
oxygen consumption per body weight ([3]; Trpa1 knockout mice (Trpa1−/−)): the oxygen consumption did not decrease
oxygen consumption per body weight ([3]; control mice (Trpa1+/−)): the oxygen consumption was decreased
blood concentration of HMGB1 [4]: decreased the blood concentration of inflammatory mediator HMGB1
survival time in 4% oxygen (C57/BL6N male mice [5]): many individuals survived even after 30 min
blood concentration of IL-10 (Interleukin-10 (IL-10)): increased the blood concentration of anti-inflammatory cytokine IL-10
oxygen consumption (mice): suppress the oxygen consumption

From patent US20240382497A1, “PROPHYLACTIC OR THERAPEUTIC AGENT FOR HYPOXIC INJURY, ISCHAEMIA-REPERFUSION INJURY AND INFLAMMATION, CELL PROTECTION AGENT FOR TRANSPLANTATION, AND BIO-PRESERVATION AGENT” (priority 2018, published 2024)
